Assay results taken from US20220031684A1, “PROPHYLACTIC EFFICACY OF SEROTONIN 4 RECEPTOR AGONISTS AGAINST STRESS” (THE TRUSTEES OF COLUMBIA UNIVERSITY IN THE CITY OF NEW YORK, priority 2019, published 2022).

Tests used:
C57BL/6NTac mice = test: Sucrose splash test (ST) in CORT model; assay type: in vivo; settings: male C57BL/6NTac; Flx 18 mg/kg/day or RS-67,333 1.5 mg/kg/day for 3 weeks prior to CORT
Procedure: This chronic CORT elevation dysregulates the hypothalamic-pituitary-adrenal axis (HPA) in a manner similar to that observed in clinical depression. The dose and duration of CORT treatment was selected based on previous studies. CORT (35 μg/ml, equivalent to about 5 mg/kg/day) dissolved in 0.45% hydroxypropyl-o-cyclodextrin (0-CD) or vehicle (VEH) (0.45% j-CD) was available ad libitum in the drinking water in opaque bottles to protect it from light. VEH- and CORT-treated water was changed every 3 days to prevent possible degradation. Contextual Fear Conditioning (CFC): A 3-shock CFC procedure was administered as previously published. Briefly, mice were placed into context A and administered 3 2-s shocks (0.75 mA) at 180 s, 240 s or 300 s following placement into context A. Mice were removed from the context 15 s following the termination of shock (at 317 s). For context retrieval, mice were placed back into context A for 300 s. Electrophysiology: Electrophysiology was conducted as previously described. Statistical Analysis: Results from data analyses are expressed as means±SEM. Alpha was set to 0.05 for all analyses. Data were analyzed using GraphPad Prism v7.0 or v8.0. For all experiments, unless otherwise noted, one- or two-way ANOVAs with repeated-measures were applied to the data as appropriate. […] Videos were scored using ANY-maze behavior tracking software (Stoelting, Wood Dale, Ill.). […]

129S6/SvEv mice [1] = test: Novelty-suppressed feeding (NSF) after CFC; assay type: in vivo
Procedure: (§1) This chronic CORT elevation dysregulates the hypothalamic-pituitary-adrenal axis (HPA) in a manner similar to that observed in clinical depression. The dose and duration of CORT treatment was selected based on previous studies. CORT (35 μg/ml, equivalent to about 5 mg/kg/day) dissolved in 0.45% hydroxypropyl-o-cyclodextrin (0-CD) or vehicle (VEH) (0.45% j-CD) was available ad libitum in the drinking water in opaque bottles to protect it from light. VEH- and CORT-treated water was changed every 3 days to prevent possible degradation. Contextual Fear Conditioning (CFC): A 3-shock CFC procedure was administered as previously published. Briefly, mice were placed into context A and administered 3 2-s shocks (0.75 mA) at 180 s, 240 s or 300 s following placement into context A. Mice were removed from the context 15 s following the termination of shock (at 317 s). For context retrieval, mice were placed back into context A for 300 s. Electrophysiology: Electrophysiology was conducted as previously described. Statistical Analysis: Results from data analyses are expressed as means±SEM. Alpha was set to 0.05 for all analyses. Data were analyzed using GraphPad Prism v7.0 or v8.0. For all experiments, unless otherwise noted, one- or two-way ANOVAs with repeated-measures were applied to the data as appropriate. Significant main effects and/or interactions were followed by Fisher's PLSD post hoc analysis or unpaired t-tests. Drugs: All drugs were prepared in physiological saline and all injections were administered intraperitoneally (i.p.) in volumes of 0.1 cc per […] body weight unless otherwise noted. Fluoxetine hydrochloride (Flx): Flx (BioTrend Chemicals AG, BG197, Zurich, Germany) was administered in the drinking water (18 mg/kg/day) for 3 weeks before the start of CORT. […] (R,S)-ketamine (K): (R,S)-ketamine (Ketaset III, Ketamine HCl injection, Fort Dodge Animal Health, Fort Dodge, Iowa) was administered in a single dose at 30 mg/kg of body weight 1 week before the start of CFC. […] PF-04995274: PF-04995274 (Sigma, Catalog No. 1331782-27-4, St. Louis, Mo.) was administered a single dose at 3 or 10 mg/kg of body weight 1 week before the start of CFC. PF-04995274 was dissolved in saline using an ultrasonic homogenizer (BioLogics, Model 3000, Manassas, Va.). Osmotic minipump implantation: ALZET osmotic minipumps (Model 2004, […], 28 days) were implanted subcutaneously under isoflurane anesthesia as previously described [S2]. Osmotic minipumps were rotated under the skin two to three times per week. Behavioral Assays: All experiments were approved by the Institutional Animal Care and Use Committee (IACUC) at the New York Psychiatric Institute (NYSPI). Elevated Plus Maze (EPM): Testing was performed as previously described [S3]. Briefly, the maze is a plus-cross-shaped apparatus consisting of four arms, two open and two enclosed by walls, linked by a central platform at a height of 50 cm from the floor. Mice were individually placed in the center of the maze facing an open arm and were allowed to explore the maze for 5 min. The time spent in and the number of entries into the open arms was used as an anxiety index. Videos were scored using ANY-maze behavior tracking software (Stoelting, Wood Dale, Ill.). Novelty-Suppressed Feeding: The NSF is a conflict test that elicits competing motivations: the drive to eat and the fear of venturing into the center of a brightly lit arena. The latency to feed is used as an index of anxiety-like behavior, because classical anxiolytic drugs decrease this measure. The NSF test was carried out during an 8 min period as previously described [S3]. Briefly, the testing apparatus consisted of a plastic box (50×50×20 cm), the floor of which was covered with approximately 2 cm of bedding. For 129S6/SvEv experiments, mice were food restricted for 12 h. For the C57BL/6N experiments, mice were food restricted for 24 h. […]

129S6/SvEv mice [2] = test: Forced swim test (FST) after CFC; assay type: in vivo
Procedure: as §1

sigma 1 = sigma 1 (Homo sapiens, UniProt Q99720); settings: cited from earlier work
sigma 1, sequence (Q99720 whole entry): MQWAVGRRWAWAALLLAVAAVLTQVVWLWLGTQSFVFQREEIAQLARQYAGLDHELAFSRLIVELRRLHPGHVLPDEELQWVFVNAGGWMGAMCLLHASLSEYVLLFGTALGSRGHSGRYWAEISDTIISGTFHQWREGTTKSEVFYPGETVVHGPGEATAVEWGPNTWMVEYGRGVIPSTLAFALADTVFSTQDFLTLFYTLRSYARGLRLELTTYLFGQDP

129S6/SvEv mice [3] = test: 3-shock contextual fear conditioning (CFC); assay type: in vivo; settings: for p value, CFC Re-exposure Average Freezing (%), Fisher's LSD: FIG. 2D
Procedure: as §1

[4] = FIG. 3 cohort, FIG. 3M, Fisher's PLSD
[5] = FIG. 3 cohort, FIG. 3G, Fisher's PLSD

SMILES: CCCCN1CCC(CCC(=O)c2cc(Cl)c(N)cc2OC)CC1.Cl [RS-67,333, 1-(4-amino-5-chloro-2-methoxyphenyl)-3-[1(n-butyl)-4-piperidinyl]-1-propanone HCl]
- grooming duration (ST) vs CORT+Veh (C57BL/6NTac mice): increased grooming duration
- p, NSF Latency of feed, Saline vs. RS67333 (10 mg/kg) (129S6/SvEv mice [1]; FIG. 2M, t-test): 0.0108
- p, NSF Food Eaten (g), Saline vs. RS67333 (10 mg/kg) (129S6/SvEv mice [1]; FIG. 2N, t-test): 0.3871
- p, NSF Body Weight, Saline vs. RS67333 (10 mg/kg) (129S6/SvEv mice [1]; FIG. 2O, t-test): 0.8829
- p, NSF Latency to feed (sec), RS67333 (1.5 mg/kg) vs. RS67333 (10 mg/kg) (129S6/SvEv mice [1]; [4]): 0.0820
- p, NSF Latency to feed (sec), Saline vs. RS67333 (10 mg/kg) (129S6/SvEv mice [1]; [4]): 0.0010
- significance (* column), NSF Latency to feed (sec), Saline vs. RS67333 (1.5 mg/kg) (129S6/SvEv mice [1]; FIG. 3 cohort, FIG. 3M, Fisher's PLSD, p cell empty): ns
- latency to feed (NSF) (129S6/SvEv mice [1]; female 129S6/SvEv, 10 mg/kg): significantly reduced latency to feed
- latency to approach the pellet (NSF) vs saline (129S6/SvEv mice [1]; male 129S6/SvEv, 10 mg/kg): significantly reduced latency
- p, FST Day 1 Immobility Time (sec), RS67333 (1.5 mg/kg) vs. RS67333 (10 mg/kg) (129S6/SvEv mice [2]; FIG. 2E, Fisher's LSD): 0.3430
- p, FST Day 1 Immobility Time (sec), RS67333 (1.5 mg/kg) vs. RS67333 (30 mg/kg) (129S6/SvEv mice [2]; FIG. 2E, Fisher's LSD): 0.5994
- p, FST Day 1 Immobility Time (sec), RS67333 (10 mg/kg) vs. RS67333 (30 mg/kg) (129S6/SvEv mice [2]; FIG. 2E, Fisher's LSD): 0.1099
- p, FST Day 1 Immobility Time (sec), Saline vs. RS67333 (1.5 mg/kg) (129S6/SvEv mice [2]; FIG. 2E, Fisher's LSD): 0.3784
- p, FST Day 1 Immobility Time (sec), Saline vs. RS67333 (10 mg/kg) (129S6/SvEv mice [2]; FIG. 2E, Fisher's LSD): 0.0028
- p, FST Day 1 Immobility Time (sec), Saline vs. RS67333 (30 mg/kg) (129S6/SvEv mice [2]; FIG. 2E, Fisher's LSD): 0.8437
- p, FST Day 2 Immobility Time (min 3-6) (sec), RS67333 (1.5 mg/kg) vs. RS67333 (10 mg/kg) (129S6/SvEv mice [2]; [5]): 0.0235
- p, FST Day 2 Immobility Time (min 3-6) (sec), Saline vs. RS67333 (1.5 mg/kg) (129S6/SvEv mice [2]; [5]): 0.4916
- p, FST Day 2 Immobility Time (min 3-6) (sec), Saline vs. RS67333 (10 mg/kg) (129S6/SvEv mice [2]; [5]): 0.1991
- immobility, FST days 1 and 2 (129S6/SvEv mice [2]; female 129S6/SvEv, 1.5 or 10 mg/kg vs saline): comparable levels of immobility
- immobility time, FST Day 2 (129S6/SvEv mice [2]; male 129S6/SvEv, RS-67,333 1.5, 10 or 30 mg/kg vs saline): comparable
- immobility, FST Day 1 vs saline (129S6/SvEv mice [2]; male 129S6/SvEv, single injection 1 week before CFC, 10 mg/kg): significantly less immobile
- pKi sigma 1 (sigma 1): 8.9
- p value, CFC Re-exposure Average Freezing (%), Fisher's LSD (129S6/SvEv mice [3]; RS67333 (1.5 mg/kg) vs. (second group beyond the rows shown)): 0.3259
- p value, CFC Re-exposure Average Freezing (%), Fisher's LSD (129S6/SvEv mice [3]; RS67333 (1.5 mg/kg) vs. RS67333 (10 mg/kg)): 0.8278
- p value, CFC Re-exposure Average Freezing (%), Fisher's LSD (129S6/SvEv mice [3]; Saline vs. RS67333 (1.5 mg/kg)): 0.0185
- p value, CFC Re-exposure Average Freezing (%), Fisher's LSD (129S6/SvEv mice [3]; Saline vs. RS67333 (10 mg/kg)): 0.0006
- p value, CFC Re-exposure Average Freezing (%), Fisher's LSD (129S6/SvEv mice [3]; Saline vs. RS67333 (30 mg/kg)): 0.2625
- p, RS67333 (10 mg/kg) vs. RS67333 (30 mg/kg) (129S6/SvEv mice [3]; FIG. 2 cohort, post-hoc comparison, measurement head lies above the shown rows (block before FST)): 0.3050
- p, CFC Trainging Freezing (%), RS67333 (1.5 mg/kg) vs. RS67333 (10 mg/kg) (129S6/SvEv mice [3]; FIG. 3 Acute RS67333 cohort, FIG. 3B, Fisher's PLSD): 0.3858
